How the values were obtained:
U-138 MG cells = assay: MTT test, U-138 MG; format: cell-based, human; details: 48 h; for IC50: Homo sapiens, U138-MG, three independent experiments, read-out: IC50 [uM] ± SEM U-138 MG
Protocol: Three human GBM cell lines were used in this study, i.e., A-172 (ATCC-CRL-1620), T98G (92090213), and U-138 MG (ATCC-HTB-16). The A-172 and U-138 MG cell lines were purchased from the American Type Culture Collection (ATCC), whereas the T98G cell line was obtained from the European Collection of Authenticated Cell Cultures (ECACC). It has been confirmed by us that O^6-methylguanine-DNA methyltransferase (MGMT), the key factor determining the response to alkylating agents, such as TMZ, is expressed in T98G and U-138 MG cells, whereas in A-172 the expression of MGMT is silenced by promoter methylation. Therefore, the cell lines differ in terms of TMZ sensitivity; A-172 is regarded as TMZ sensitive, whereas T98G and U-138 MG are TMZ resistant.
The cells were grown as monolayers (2D cell culture) in the recommended media: A-172 were grown in the ATCC-formulated DMEM (Merck, Darmstadt, Germany), whereas T98G and U-138 MG cell lines were grown in the ATCC-formulated EMEM (Merck, Darmstadt, Germany). These media were supplemented with FBS (Biowest, Nuaillé, France) to a final concentration of 10%, as well as antibiotics (penicillin and streptomycin) (Merck, Darmstadt, Germany) to the final concentrations of 1%. For the experiments, the amount of FBS was reduced to 5%. The medium for the T98G cell line was supplemented with 2 mM glutamine, 1% nonessential amino acids, and 1% sodium pyruvate (all purchased from Merck, Darmstadt, Germany).
In order to analyze the cytotoxicity of the analyzed lichen secondary metabolites, as well as to establish the appropriate concentrations for further analysis (allowing the survival of >70% of cells), we performed the MTT test. The procedure of the test was described previously. Briefly, the cells (10,000 cells per well) were seeded on the 96-well plates and left for 24 h. Afterwards, the analyzed compounds in the concentration range of 1 µM up to 100 µM were added to the cells and left for 48 h incubation. DMSO treated cells served as control. After the above-mentioned time, the cells were washed twice with warm PBS and incubated for 3 h in the presence of a fresh medium containing MTT salt (0.5 mg/mL). Then the formazan crystals were dissolved in acidic isopropanol. The absorbance was measured at 570 and 690 nm on a Tecan Infinite M200 microplate reader (Grödig, Austria). The experiments were repeated at least three times.

[1] = Parallel artificial membrane permeability assay for the blood-brain barrier (PAMPA-BBB); format: in vitro ADME; details: pH 7.4, 4 h, 37 °C; for Papp at 4 h, 24.75 µg/mL: mean ± SEM, n = 3, Pe > 1.5 high, < 1.5 low permeation predicted, read-out: Pe × 10^−6
Protocol: The parallel artificial membrane permeability assay (PAMPA) for the blood-brain barrier (BBB) (Pion Inc., Billerica, MA, USA) was used to analyze whether the lichen secondary metabolites tested in this study were able to cross the BBB. The stock solutions (5 mg/mL) of tested compounds were prepared using DMSO. Next, the donor solution (24.75 μg/mL) using Prisma buffer (pH = 7.4; Prisma HT, Pion Inc., Billerica, MA, USA) were made. Firstly, 180 μL of the donor solution were added to the donor wells. Then the filter membranes were coated with 5 μL BBB-1 lipid solution (Pion Inc., Billerica, MA, USA) and the acceptor wells were filled with 200 μL BSB (Brain Sink Buffer, Pion Inc., Billerica, MA, USA). The plates were sandwiched together and incubated for 4 h at 37 °C (Thermo Scientific MaxQ 4450, Waltham, MA, USA). The results were determined by spectroscopic analysis (Multiskan GO microplate reader, Waltham, MA, USA), with the appropriate wavelength for a given compound (240 nm for […] salazinic acid, 250 nm for atranorin and squamatic acid, 263 nm for physodic acid, and 270 nm for lecanoric acid). […] Pe is the effective permeability coefficient (cm/s), VD-donor volume, VA-acceptor volume, Ceq-equilibrium concentration, Ceq=CD×VD+CA×VA/VD+VA , S-membrane area, and t-incubation time (in seconds). […] Samples were analyzed in triplicate, and the average was reported.

[2] = system: Wnt/β-catenin pathway target genes in T98G cells; assay: qPCR of β-catenin and Wnt target genes, T98G; format: cell-based, human; details: 48 h
Protocol: Based on the MTT test, the lichen secondary metabolite concentrations allowing the survival of more than 70% of cells were chosen for the subsequent experiments. The compounds were added as follows: A-172 cells—atranorin 25 µM, caperatic acid 50 µM, physodic acid 25 µM, squamatic acid 25 µM, salazinic acid 50 µM, and lecanoric acid 100 µM; T98G cells—atranorin 50 µM, caperatic acid 100 µM, physodic acid 25 µM, squamatic acid 50 µM, salazinic acid 100 µM, and lecanoric acid 100 µM; U-138 MG cells—atranorin 25 µM, caperatic acid 50 µM, physodic acid 25 µM, squamatic acid 50 µM, salazinic acid 50 µM, and lecanoric acid 100 µM. As far as the TMZ treatment is concerned, it was added in the concentrations depending on the MGMT expression and methylation status, i.e., TMZ 30 µM was added to the A-172 cell line, and TMZ 100 µM was added to both the T98G and U-138 MG cell lines. In the case of the 2D culture, the cells were treated with the compounds 24 h after seeding, whereas, in regard to 3D culture, 5 days were needed to form spheroids. All subsequent analyses were performed 48 h after treatment.
The Universal RNA Purification Kit (EURx, Gdańsk, Poland) was used for total RNA isolation from the A-172, T98G, and U-138 MG cells, and the Revert-Aid First Strand cDNA Synthesis kit (Fermentas, Burlington, ON, Canada) was chosen for cDNA synthesis. Quantitative real-time PCR (qPCR) was performed using Hot FIREPol EvaGreen qPCR Mix Plus (Solis Biodyne, Tartu, Estonia) and LightCycler 96 (Roche Diagnostics GmbH, Mannheim, Germany). Primer sequences were previously published and their synthesis was performed at the Institute of Biochemistry and Biophysics, Warsaw, Poland. The protocol started with 15 min enzyme activation at 95 °C, followed by 40 cycles of 95 °C for 15 s; appropriate annealing temperature for 20 s; 72 °C for 40 s and the final elongation at 72 °C for 5 min. Melting curve analysis was used to confirm the generation of a single amplification product. TATA box-binding protein (TBP), a component of the DNA-binding protein complex TFIID, served as the endogenous RNA control. The results were expressed as N-fold differences in the gene expression relative to the TBP gene. The ΔΔCt method was used for fold-change calculation. All samples were analyzed in triplicate, and the reaction was repeated at least twice.

[3] = mRNA vs DMSO control, single agent

SMILES	Papp at 4 h, 24.75 µg/mL [1]	IC50 (U-138 MG cells)	c-MYC expression [2, 3]	NEDD9 expression [2, 3]	Axin2 expression ([2]; co-treatment with TMZ 100 µM)	CCND1 expression ([2]; co-treatment with TMZ 100 µM)	c-MYC expression ([2]; co-treatment with TMZ 100 µM)	β-catenin (CTNNB1) expression ([2]; co-treatment with TMZ 100 µM)	number of viable cells (U-138 MG cells; U-138 MG, 50 µM)	Pe × 10^−6 (cm/s), class [1]	number of the six analyzed genes downregulated ([2]; co-treatment with TMZ 100 µM)	CCND1 expression [2, 3]	BIRC5 expression ([2]; mRNA vs DMSO control, single agent, TMZ 100 µM)	NEDD9 expression ([2]; co-treatment with TMZ 100 µM)
COC(=O)c1c(C)cc(OC(=O)c2c(C)cc(O)c(C=O)c2O)c(C)c1O [Atranorin]	2.2 ± 0.1 ×10⁻⁶ cm/s	47.8 ± 2.16 µM	trend towards downregulation, but with no statistical significance											
CCCCCCCCCCCCCCC(C(=O)O)C(O)(CC(=O)OC)C(=O)O (stereo not shown) [Caperatic acid]	5.2 ± 0.1 ×10⁻⁶ cm/s	> 100 µM		downregulated										
Cc1cc(O)c(C=O)c2c1C(=O)Oc1c(CO)c(O)c3c(c1O2)C(O)OC3=O (stereo not shown) [Salazinic acid]		> 100 µM	upregulated		trend toward downregulation				significantly reduced the number of viable cells	np (np—classified as non-permeable (i.e., Pe < 0.5 × 10^−6 cm/s))	five out of six	significantly upregulated	downregulated	

More lines, main results first:

Papp at 4 h, 24.75 µg/mL [1]	SMILES	IC50 (U-138 MG cells)	c-MYC expression [2, 3]	NEDD9 expression [2, 3]	Axin2 expression ([2]; co-treatment with TMZ 100 µM)	CCND1 expression ([2]; co-treatment with TMZ 100 µM)	c-MYC expression ([2]; co-treatment with TMZ 100 µM)	β-catenin (CTNNB1) expression ([2]; co-treatment with TMZ 100 µM)	number of viable cells (U-138 MG cells; U-138 MG, 50 µM)	Pe × 10^−6 (cm/s), class [1]	number of the six analyzed genes downregulated ([2]; co-treatment with TMZ 100 µM)	CCND1 expression [2, 3]	BIRC5 expression ([2]; mRNA vs DMSO control, single agent, TMZ 100 µM)	NEDD9 expression ([2]; co-treatment with TMZ 100 µM)
1.7 ± 0.2 ×10⁻⁶ cm/s	Cc1cc(OC(=O)c2c(C)cc(O)cc2O)cc(O)c1C(=O)O [Lecanoric acid]	> 100 µM			downregulated	downregulated	downregulated	downregulated						
0.5 ± 0.1 ×10⁻⁶ cm/s	COc1cc(C)c(C(=O)Oc2cc(C)c(C(=O)O)c(O)c2C)c(O)c1C(=O)O [Squamatic acid]	> 100 µM	trend towards downregulation, but with no statistical significance	downregulation		downregulated	downregulated	downregulated						downregulated

Source: paper PMC8997913, “Lichen Secondary Metabolites Inhibit the Wnt/β-Catenin Pathway in Glioblastoma Cells and Improve the Anticancer Effects of Temozolomide” (Cells, 2022)
